Here are results for three molecules from publication PMC4880283, “Crystal Structures of Putative Sugar Kinases from Synechococcus Elongatus PCC 7942 and Arabidopsis Thaliana” (PLoS ONE, 2016).

SMILES strings stand for the structures.

Test [1] addresses T1, AtXK-1 (Arabidopsis thaliana, UniProt Q8L794).
T1 construct: gene XK1; mature form (436 aa) without chloroplast transit peptide; forward primer encodes VMSGNKGT; pMCSG7, N-terminal His6 removed by TEV protease, E. coli BL21(DE3)
Description: X-ray crystal structure (soak). The settings on record: crystal soaked in 10 mM AMP-PNP, 20 mM MgCl2; ATP site in domain II. It is filed as binding.

In test [2] the target is T2, SePSK (Synechococcus elongatus, UniProt Q31KC7).
T2 construct: gene PSK; full length (426 aa), pET28-a (Nco I/Xho I), C-terminal His6 tag kept, E. coli BL21(DE3)
Put plainly: X-ray crystal structure, […] A (soak). Type of test: binding. The settings on record: crystal soaked in 10 mM AMP-PNP, 20 mM MgCl2; ATP site in domain II.

Test [3] has as its target T3, SePSK (Synechococcus elongatus, UniProt Q31KC7, D8A).
T3 construct: gene PSK; full length (426 aa), pET28-a (Nco I/Xho I), C-terminal His6 tag kept, E. coli BL21(DE3)
Description: ADP-Glo kinase assay. Type of test: biochemical. Conditions: 5 mM D-ribulose, 100 uM ATP, 1 mM MgCl2, 20 mM HEPES pH 7.4, 298 K; activity much lower than wild type. In general terms: In ADP-Glo the light output rises with the ADP produced.

Test [4] concerns the target T4, SePSK (Synechococcus elongatus, UniProt Q31KC7, D221A).
T4 construct: gene PSK; full length (426 aa), pET28-a (Nco I/Xho I), C-terminal His6 tag kept, E. coli BL21(DE3)
Put plainly: ADP-Glo kinase assay. Type of test: biochemical. Conditions: 5 mM D-ribulose, 100 uM ATP, 1 mM MgCl2, 20 mM HEPES pH 7.4, 298 K; activity much lower than wild type.

Test [5] addresses T5, SePSK (Synechococcus elongatus, UniProt Q31KC7, T11A).
T5 construct: gene PSK; full length (426 aa), pET28-a (Nco I/Xho I), C-terminal His6 tag kept, E. coli BL21(DE3)
Put plainly: ADP-Glo kinase assay. It is filed as biochemical. The settings on record: 5 mM D-ribulose, 100 uM ATP, 1 mM MgCl2, 20 mM HEPES pH 7.4, 298 K; activity much lower than wild type.

Test [6] addresses T3, SePSK. Description: surface plasmon resonance (single-cycle kinetics, CM5). Type of test: binding. The settings on record: rate constant (off-rate), not an equilibrium Kd; 1:1 Langmuir fit; 20 mM HEPES pH 7.5, 100 mM NaCl; 298 K. For orientation: In SPR one partner is held on a chip, and binding of the other changes the refractive index at the surface.
The target of test [7] is T1, AtXK-1. Put plainly: ADP-Glo kinase assay. It is filed as biochemical. Conditions: 100 uM ATP, no sugar, 1 mM MgCl2, 20 mM HEPES pH 7.4, 298 K.
Test [8] concerns the target T2, SePSK. Put plainly: ADP-Glo kinase assay. Conditions: 100 uM ATP, no sugar, 1 mM MgCl2, 20 mM HEPES pH 7.4, 298 K. Type of test: biochemical.

T1 sequence (Q8L794 43-478): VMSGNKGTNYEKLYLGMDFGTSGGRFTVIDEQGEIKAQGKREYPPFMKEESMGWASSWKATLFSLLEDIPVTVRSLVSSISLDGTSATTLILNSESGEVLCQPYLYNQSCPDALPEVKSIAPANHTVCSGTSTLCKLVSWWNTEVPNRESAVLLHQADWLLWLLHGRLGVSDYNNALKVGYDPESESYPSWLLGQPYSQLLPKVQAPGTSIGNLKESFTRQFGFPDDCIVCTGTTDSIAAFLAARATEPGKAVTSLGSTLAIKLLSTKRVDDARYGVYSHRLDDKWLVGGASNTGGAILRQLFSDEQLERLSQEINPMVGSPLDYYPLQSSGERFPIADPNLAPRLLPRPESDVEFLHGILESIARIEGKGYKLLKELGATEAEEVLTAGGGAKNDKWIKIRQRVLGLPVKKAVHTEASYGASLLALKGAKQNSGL
T2 sequence (Q31KC7 whole entry): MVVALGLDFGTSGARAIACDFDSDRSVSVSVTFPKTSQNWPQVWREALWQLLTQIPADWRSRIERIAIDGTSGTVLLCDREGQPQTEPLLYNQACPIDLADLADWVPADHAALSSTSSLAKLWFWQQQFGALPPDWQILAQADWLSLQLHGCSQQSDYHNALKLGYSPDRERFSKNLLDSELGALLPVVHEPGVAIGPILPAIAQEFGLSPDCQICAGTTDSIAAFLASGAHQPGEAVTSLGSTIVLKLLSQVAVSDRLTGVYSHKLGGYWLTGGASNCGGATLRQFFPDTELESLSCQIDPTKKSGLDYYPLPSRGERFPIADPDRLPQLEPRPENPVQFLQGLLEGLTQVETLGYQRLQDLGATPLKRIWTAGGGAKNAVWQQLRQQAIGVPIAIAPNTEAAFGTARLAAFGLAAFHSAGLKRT
T3 sequence (Q31KC7 whole entry D8A): as the sequence (Q31KC7 whole entry) above, with D8A counted along it
T4 sequence (Q31KC7 whole entry D221A): as the sequence (Q31KC7 whole entry) above, with D221A counted along it
T5 sequence (Q31KC7 whole entry T11A): as the sequence (Q31KC7 whole entry) above, with T11A counted along it

Take `Nc1ncnc2c1ncn2[C@@H]1O[C@H](COP(=O)(O)OP(=O)(O)NP(=O)(O)O)[C@@H](O)[C@H]1O` [AMP-PNP]: at AtXK-1 [1], the “X-ray crystal structure (soak)” value was “soaked the crystals of apo-SePSK and apo-AtXK-1 into the reservoir adding AMP-PNP”. In addition, the “X-ray crystal structure, 2.3 A (soak)” value on SePSK [2] is on record as “one SePSK protein molecule is in an asymmetric unit with one AMP-PNP molecule”.

Take `O=C(CO)[C@H](O)[C@H](O)CO` [D-ribulose]: the ADP-Glo kinase assay entry on SePSK [3], at SePSK [4] and at SePSK [5] was “all of these mutants exhibit much lower activity of ATP hydrolysis after adding D-ribulose” throughout. Moreover, the “Dissociation rate constant (koff)” value on SePSK [6] came to 9 ms^-1.

Regarding `Nc1ncnc2c1ncn2[C@@H]1O[C@H](COP(=O)(O)OP(=O)(O)OP(=O)(O)O)[C@@H](O)[C@H]1O` [ATP], the ADP-Glo kinase assay result on AtXK-1 [7] was “both SePSK and AtXK-1 exhibited ATP hydrolysis activity”; on SePSK [8], “both SePSK and AtXK-1 exhibited ATP hydrolysis activity”.
